Article PMC8688997, “Five Constituents Contributed to the Psoraleae Fructus-Induced Hepatotoxicity via Mitochondrial Dysfunction and Apoptosis” (Frontiers in Pharmacology, 2021)
Entries after “also recorded” stand apart in the source; their conditions may differ. Like-named read-outs stand apart in the source and are kept apart here.

How the values were obtained:
[1] = test system: HepG2 cells; assay: HCS LipidTOX Green intracellular lipid assay, HepG2 cells; assay type: cell-based, human; conditions: 24 h
Protocol: (§1) Here, L02 and HepG2 cells were plated at a density of […] in 96-well plates. Then, they were treated with bavachin (17, 34, and 68 μmol/L), psoralidin (11.5 23, and 46 μmol/L), bavachinin (15, 30, and 60 μmol/L), neobavaisoflavone (23.5, 47, and 94 μmol/L), and bakuchiol (13, 26, and 52 μmol/L) for 24 h. Then Hoechst 33342, eBioscience™ JC-1 Mitochondrial Membrane Potential Dye, CellROX Deep Red, and HCS LipidTOX™ Green Phospholipidosis Detection Reagent kits were used to characterize their cell counts, nuclear area, MMP, ROS, and intracellular lipid. Consequently, multi-parameter cytotoxicity was analyzed through high-content screening (HCS) analysis (IN Cell Analyzer 2500 HS; Cytiva, Marlborough, MA, USA). Then, a 20× objective was used to collect all images. Three independent wells were examined for each treatment, and 16 fields per well were captured during the analysis. Lastly, HCS analysis was performed using Automated Image and Cell Analysis software (IN Cell Analyzer 2000; USA).

[2] = test system: L02 cells; assay: HCS LipidTOX Green intracellular lipid assay, L02 cells; assay type: cell-based, human; conditions: 24 h
Protocol: as §1

[3] = test system: L02 and HepG2 cells; assay type: cell-based; conditions: human, 24 h
Protocol: as §1

[4] = test system: L02 cells; assay: CCK-8 cell viability assay, L02 cells; assay type: cell-based, human
Protocol: (§2) L02 and HepG2 cells were purchased from the China Infrastructure of Cell Line Resources (Beijing, China). They were cultured in Dulbecco’s modified Eagle’s medium (DMEM) high glucose medium (Gibco, Grand Island, NY, USA) supplemented with 10% (v/v) fetal bovine serum (FBS) (Gibco, Melbourne, VIC, Australia) and 1% U/ml of antibiotics (penicillin and streptomycin) at 37°C in an atmosphere containing 5% CO2.
(§3) The viability of L02 and HepG2 cells was determined using the CCK-8 assay. L02 and HepG2 cells (1 × 10^4 cells/well) were seeded into 96-well plates for 12 h until they visibly reached confluence. Then, the adherent cells were treated with varying concentrations of psoralen (120.86, 161.34, 215.12, 286.83, 382.44, 509.92, 679.90, and 906.53 μmol/L), isopsoralen (161.15, 214.87, 286.64, 382.47, 509.88, 679.85, 906.53, and 1,208.64 μmol/L), bavachin (16.40, 21.95, 29.23, 38.97, 52.04, 69.37, 92.49, and 123.32 μmol/L), psoralidin (8.92, 11.89, 15.82, 21.17, 28.19, 37.58, 50.19, and 66.90 μmol/L), bavachinin (11.82, 15.72, 21.04, 28.01, 37.35, 49.88, 66.49, and 88.65 μmol/L), neobavaisoflavone (5.21, 9.30, 16.50, 29.41, 52.36, 93.07, 165.53, and 294.46 μmol/L), and bakuchiol (11.70, 15.60, 20.75, 27.77, 36.97, 49.30, 65.84, and 87.76 μmol/L). Consequently, these cells were incubated for 24 h, and 100 μl of 10% (v/v) CCK-8 medium solution was added to each well for 2 h. The absorbance (optical density (OD)) of the culture medium was detected at 450 nm using a Multiskan GO microplate reader (Thermo Fisher Scientific). Each experiment was repeated thrice, and each treatment was probed in at least six wells. The following equation was used to calculate the viability of the cells (%): Cell Viability (%)=ODcompound−ODblank/ODcontrol−ODblank×100%

[5] = test system: L02 and HepG2 cells; assay type: cell-based, human
Protocol: (§4) L02 and HepG2 cells were cultured in 6-well plates at a density of 2 × 10^5 cells/well. Subsequently, they were incubated with bavachin, psoralidin, bavachinin, neobavaisoflavone, and bakuchiol for 24 h, and the cell supernatant was collected. Lastly, aspartate aminotransferase (AST), alanine aminotransferase (ALT), and ALP were detected using a CX4 Pro automatic biochemical analyzer (Beckman, Brea, CA, USA).

[6] = test system: L02 and HepG2 cells; assay: CCK-8 cell viability assay, L02 and HepG2 cells not distinguished; assay type: cell-based, human; conditions: for IC50: read-out: IC50 value (approximate, discussion); for effect on cell viability / hepatocyte toxicity (in words): L02 and HepG2 cells
Protocol: as §2
The viability of L02 and HepG2 cells was determined using the CCK-8 assay. L02 and HepG2 cells (1 × 10^4 cells/well) were seeded into 96-well plates for 12 h until they visibly reached confluence. […] Consequently, these cells were incubated for 24 h, and 100 μl of 10% (v/v) CCK-8 medium solution was added to each well for 2 h. The absorbance (optical density (OD)) of the culture medium was detected at 450 nm using a Multiskan GO microplate reader (Thermo Fisher Scientific). Each experiment was repeated thrice, and each treatment was probed in at least six wells. The following equation was used to calculate the viability of the cells (%): Cell Viability (%)=ODcompound−ODblank/ODcontrol−ODblank×100%

[7] = test system: L02 and HepG2 cells; assay: Annexin V-FITC/PI flow cytometry apoptosis assay, L02 and HepG2 cells not distinguished; assay type: cell-based, human
Protocol: (§5) First, L02 and HepG2 cells were cultured in 6-well plates at a density of 5 × 10^5 cells/well. Then, they were treated with bavachin (17, 34, and 68 μmol/L), psoralidin (11.5, 23, and 46 μmol/L), bavachinin (15, 30, and 60 μmol/L), neobavaisoflavone (23.5, 47, and 94 μmol/L), and bakuchiol (13, 26, and 52 μmol/L) for 48 h, harvested, and washed with PBS. The apoptosis rate was measured using Pharmingen™ FITC Annexin V Apoptosis Detection Kit I (BD, 556,547, USA) following the instructions from the manufacturer. With the use of a FACSCalibur cytometer (Becton Dickinson, San Jose, CA, USA), 1 × 10^4 cells were acquired and analyzed.

[8] = test system: L02 cells; assay: Annexin V-FITC/PI flow cytometry apoptosis assay, L02 cells; assay type: cell-based, human; conditions: 48 h
Protocol: as §5

[9] = test system: HepG2 cells; assay: CCK-8 cell viability assay, HepG2 cells; assay type: cell-based, human
Protocol: as §2, §3

[10] = test system: HepG2 cells; assay: HCS CellROX Deep Red ROS assay, HepG2 cells; assay type: cell-based, human
Protocol: as §1

[11] = test system: L02 cells; assay: ALP, ALT and AST in cell culture supernatant, L02 cells; assay type: cell-based, human
Protocol: as §4

[12] = test system: L02 and HepG2 cells; assay: HCS LipidTOX Green intracellular lipid assay, L02 and HepG2 cells not distinguished; assay type: cell-based, human
Protocol: as §1

[13] = test system: L02 cells; assay: HCS CellROX Deep Red ROS assay, L02 cells; assay type: cell-based, human; conditions: only at 68 μmol/L, 24 h
Protocol: as §1

[14] = test system: HepG2 cells; parameters: method as in Yu et al., 2020; conditions: another report; ref Yu et al., 2020; read-out: concentration inhibiting 50% cell viability; cited from earlier work
[15] = test system: HepG2 cells; assay: ALP, ALT and AST in cell culture supernatant, HepG2 cells; assay type: cell-based, human; conditions: 46 μmol/L, 24 h
Protocol: as §4

[16] = test system: L02 and HepG2 cells; assay: HCS JC-1 mitochondrial membrane potential (MMP) assay, L02 and HepG2 cells; assay type: cell-based, human; conditions: 60 μmol/L; 24 h
Protocol: as §1

[17] = Homo sapiens, L02, CCK-8, incubation 24 h or 48 h, read-out: IC50 toward L02 cells
[18] = Homo sapiens, HepG2, cell line not distinguished
[19] = Homo sapiens, HepG2, CCK-8, incubation 24 h or 48 h, read-out: IC50 toward HepG2 cells

C=C[C@@](C)(/C=C/c1ccc(O)cc1)CCC=C(C)C [Bakuchiol, bakuchiol]
lipid accumulation, times higher than control ([1]; first of three doses (13 μmol/L)): 1.27 times | lipid accumulation, times higher than control ([1]; second of three doses (26 μmol/L)): 2.37 times | lipid accumulation, times higher than control ([1]; third of three doses (52 μmol/L)): 5.84 times | lipid accumulation, times higher than control ([2]; 13 μmol/L): 1.88 times | lipid accumulation, times higher than control ([2]; 26 μmol/L): 2.18 times | lipid accumulation, times higher than control ([2]; 52 μmol/L): 3.37 times | effect on ROS induction, L02 cells compared with HepG2 cells ([3]; 52 μmol/L): stronger effect on ROS induction in L02 cells than HepG2 cells | IC50 [4, 17]: 25.9 µM | effect on ALP, ALT, and AST contents (in words, discussion) [5]: little effect | increase of ALP, ALT, and AST levels (discussion) [5]: five times | IC50 [6, 18]: ~25 µM | effect on cell viability / hepatocyte toxicity (in words) [6]: more potent inhibitory effects on cell viability than other compounds | cell early apoptosis percentage [7]: markedly and progressively increased | effect on cell apoptosis (in words) [7]: induced apoptosis in a dose-dependent manner | necrotic cell percentages ([8]; 52 μmol/L, Figure 7I): 34.6% | IC50 [9, 19]: 34.5 µM | ROS generation [10]: promoted ROS generation

CC(C)=CCc1cc2c(cc1O)O[C@H](c1ccc(O)cc1)CC2=O [Bavachin, bavachin]
IC50 [4, 17]: 33.9 µM | IC50 [6, 18]: ~30 µM | effect on cell viability / hepatocyte toxicity (in words) [6]: intense repression of cell viability | ALP, ALT, and AST contents [11]: increased | cell early apoptosis percentage [7]: markedly and progressively increased | effect on lipid accumulation, L02 cells compared with HepG2 cells ([12]; human, 24 h, 68 μmol/L): stronger inducing effect on lipid accumulation in the HepG2 cells | ROS level [13]: increased | apoptotic cell percentage ([8]; L02 cells, increased from 6.7%, concentration not given): 44.47% | IC50 [9, 19]: 34.8 µM

O=c1ccc2ccc3occc3c2o1 [Isopsoralen, isopsoralen]
IC50 ([4]; Homo sapiens, L02, read-out: IC50 toward L02 cells): 77.9 µM | effect on cell viability / hepatocyte toxicity (in words) [6]: little hepatocyte toxicity; also recorded: very low or no toxicity | IC50 ([9]; Homo sapiens, HepG2, read-out: IC50 toward HepG2 cells): 174 µM

CC(C)=CCc1cc(-c2coc3cc(O)ccc3c2=O)ccc1O [Neobavaisoflavone, neobavaisoflavone]
effect on ROS induction, L02 cells compared with HepG2 cells [3]: stronger effect on ROS induction in L02 cells than HepG2 cells | IC50 [4, 17]: 47.8 µM | effect on cell viability / hepatocyte toxicity (in words) [6]: intense repression of cell viability | ALP, ALT, and AST contents [11]: increased | cell early apoptosis percentage [7]: markedly and progressively increased | effect on cell apoptosis (in words) [7]: induced apoptosis in a dose-dependent manner | IC50 [9, 19]: 51.7 µM

O=c1ccc2cc3ccoc3cc2o1 [Psoralen, psoralen]
IC50 [4, 17]: 284 µM | effect on cell viability / hepatocyte toxicity (in words) [6]: very low or no toxicity | effect on cell viability / hepatocyte toxicity (in words) ([6]; listed as psoralen): little hepatocyte toxicity | IC50 [14]: ~400 µM | IC50 [9, 19]: 739 µM

CC(C)=CCc1cc2c(cc1O)oc(=O)c1c3ccc(O)cc3oc21 [Psoralidin, psoralidin]
IC50 [4, 17]: 23.1 µM | increase of ALP, ALT, and AST levels (discussion) [5]: five times | induction of ALP, ALT, and AST contents [5]: more than fivefold | IC50 [6, 18]: ~25 µM | effect on cell viability / hepatocyte toxicity (in words) [6]: more potent inhibitory effects on cell viability than other compounds | effect on cell apoptosis (in words) [7]: little effect on cell apoptosis | apoptotic cell percentage ([7]; 46 μmol/L, 48 h, Figure 7C,D): 17% | effect on lipid accumulation, L02 cells compared with HepG2 cells ([12]; human, 24 h): more substantial effect on lipid accumulation in L02 cells than HepG2 cells | ALP level, times higher than control [15]: 5.7 times | AST level, times higher than control [15]: 5.4 times | IC50 [9, 19]: 23.4 µM

bavachinin
MMP levels [16]: reduced | IC50 ([4]; CCK-8, incubation 24 h or 48 h, read-out: IC50 toward L02 cells): 29.8 µM | effect on cell viability / hepatocyte toxicity (in words) [6]: intense repression of cell viability | IC50 ([6]; cell line not distinguished): ~30 µM | ALP, ALT, and AST contents ([11]; L02 cells, high dosage, 24 h): increased | cell apoptosis at low dose concentration ([7]; 15 μmol/L, 48 h): induced cell apoptosis | cell early apoptosis percentage ([7]; as the concentration increased, compared with the control): markedly and progressively increased | effect on lipid accumulation, L02 cells compared with HepG2 cells ([12]; 60 μmol/L): more substantial effect on lipid accumulation in L02 cells than HepG2 cells | lipid accumulation levels ([12]; L02 and HepG2 cells, 24 h, p < 0.05, p < 0.01): promoted lipid accumulation | IC50 ([9]; CCK-8, incubation 24 h or 48 h, read-out: IC50 toward HepG2 cells): 29.1 µM | ROS level ([10]; HepG2 cells, 30 and 60 μmol/L, 24 h): increased
